Results taken from ChEMBL document CHEMBL1201862, “PubChem BioAssay data set” (2004).
Activity calls are given as the source filed them.

Tests used:
Aminopeptidase N = biological target: T1, Aminopeptidase N (Plasmodium falciparum FcB1/Columbia, UniProt O96935); assay: malaria alanyl aminopeptidase activity blockers – biochemical, fluorogenic H-Leu-NHMec substrate, 1536-well (AID 1445); parameters: species or system Plasmodium falciparum 3D7, 3D7
T1 sequence (O96935 whole entry): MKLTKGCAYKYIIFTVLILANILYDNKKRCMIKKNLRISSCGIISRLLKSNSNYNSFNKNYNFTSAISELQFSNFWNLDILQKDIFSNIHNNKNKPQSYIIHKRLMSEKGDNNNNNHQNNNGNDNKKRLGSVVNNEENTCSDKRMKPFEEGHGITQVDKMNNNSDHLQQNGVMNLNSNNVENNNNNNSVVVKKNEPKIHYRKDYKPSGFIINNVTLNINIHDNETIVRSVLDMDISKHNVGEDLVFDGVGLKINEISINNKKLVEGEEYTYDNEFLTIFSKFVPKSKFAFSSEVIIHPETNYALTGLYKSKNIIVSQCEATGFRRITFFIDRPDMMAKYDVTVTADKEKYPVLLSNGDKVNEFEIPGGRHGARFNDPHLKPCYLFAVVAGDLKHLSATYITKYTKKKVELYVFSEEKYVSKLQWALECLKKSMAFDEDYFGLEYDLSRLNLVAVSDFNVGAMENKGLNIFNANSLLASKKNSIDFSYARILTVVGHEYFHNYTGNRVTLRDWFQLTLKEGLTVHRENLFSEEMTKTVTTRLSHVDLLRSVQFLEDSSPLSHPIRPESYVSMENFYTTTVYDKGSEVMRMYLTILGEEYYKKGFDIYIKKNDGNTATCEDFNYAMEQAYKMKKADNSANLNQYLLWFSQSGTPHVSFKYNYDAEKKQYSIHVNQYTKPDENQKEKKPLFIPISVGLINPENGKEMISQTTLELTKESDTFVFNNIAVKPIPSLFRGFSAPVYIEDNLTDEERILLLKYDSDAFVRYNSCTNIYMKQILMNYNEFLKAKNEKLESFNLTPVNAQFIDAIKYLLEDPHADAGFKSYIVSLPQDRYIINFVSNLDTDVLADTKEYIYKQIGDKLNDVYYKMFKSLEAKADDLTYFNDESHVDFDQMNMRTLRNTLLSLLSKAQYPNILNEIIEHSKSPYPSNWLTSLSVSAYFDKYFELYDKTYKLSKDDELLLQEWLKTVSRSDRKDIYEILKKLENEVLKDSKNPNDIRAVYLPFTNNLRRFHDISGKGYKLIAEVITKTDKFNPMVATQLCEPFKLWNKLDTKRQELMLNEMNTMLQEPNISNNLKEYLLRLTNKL

[1] = Counterscreen for IDE inhibitors: Luminescence-based cell-based high throughput dose response assay to identify compounds that are cytotoxic to HEK cells. [Related pubchem assays: 434962 (Primary screen (IDE inhibitors in singlicate)), 449730 (Counterscreen (Cytotoxicity in triplicate)), 435028 (Confirmation (IDE inhibitors in triplicate)) …; assay type: functional; settings: HEK293
Insulin-degrading enzyme = biological target: T2, Insulin-degrading enzyme (Homo sapiens, UniProt P14735); assay: Dose Response: Fluorescence polarization-based cell-based high throughput dose response assay for inhibitors of insulin-degrading enzyme (IDE). [Related pubchem assays: 434962 (Primary screen (IDE inhibitors in singlicate)), 449730 (Counterscreen (Cytotoxicity in triplicate)), 435028 (Confirmation (IDE inhibitors in triplicate)), 434984 (Summary …; assay type: functional
T2 sequence (P14735 whole entry): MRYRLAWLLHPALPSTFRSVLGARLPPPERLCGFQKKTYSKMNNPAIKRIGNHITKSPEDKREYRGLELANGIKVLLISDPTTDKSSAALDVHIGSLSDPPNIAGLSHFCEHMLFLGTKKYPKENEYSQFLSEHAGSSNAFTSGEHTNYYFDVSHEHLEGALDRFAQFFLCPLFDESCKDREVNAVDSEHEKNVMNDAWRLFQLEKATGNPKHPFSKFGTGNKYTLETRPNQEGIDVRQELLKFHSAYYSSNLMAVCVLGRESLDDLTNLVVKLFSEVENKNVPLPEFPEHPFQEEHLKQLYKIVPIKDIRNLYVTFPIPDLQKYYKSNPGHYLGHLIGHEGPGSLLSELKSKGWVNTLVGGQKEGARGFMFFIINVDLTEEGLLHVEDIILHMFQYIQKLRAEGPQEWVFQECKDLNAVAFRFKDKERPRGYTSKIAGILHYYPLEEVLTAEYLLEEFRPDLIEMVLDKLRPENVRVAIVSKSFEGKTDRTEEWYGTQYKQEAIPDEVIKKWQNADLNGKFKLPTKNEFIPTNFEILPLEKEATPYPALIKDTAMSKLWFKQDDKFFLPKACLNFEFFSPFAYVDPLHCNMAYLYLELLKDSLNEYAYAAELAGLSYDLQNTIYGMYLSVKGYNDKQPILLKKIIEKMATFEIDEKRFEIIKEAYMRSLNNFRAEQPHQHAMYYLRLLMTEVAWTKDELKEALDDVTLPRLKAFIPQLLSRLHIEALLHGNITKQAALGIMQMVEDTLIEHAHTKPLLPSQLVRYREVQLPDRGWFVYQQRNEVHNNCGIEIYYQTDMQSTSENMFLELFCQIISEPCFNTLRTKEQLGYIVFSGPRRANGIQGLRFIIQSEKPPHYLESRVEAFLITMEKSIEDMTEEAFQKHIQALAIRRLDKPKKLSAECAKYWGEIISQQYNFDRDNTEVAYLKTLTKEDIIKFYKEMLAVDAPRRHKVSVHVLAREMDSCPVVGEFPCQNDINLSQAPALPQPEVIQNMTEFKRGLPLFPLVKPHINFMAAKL

[2] = biological target: E3 ubiquitin-protein ligase XIAP (Homo sapiens, UniProt P98170); assay: Counter Screen using XIAP-Bir3 for Chemical Antagonists of Bir1/2 domains of IAP-family anti-apoptotic proteins. [Related pubchem assays (depositor defined):AID1018, AID1449, AID1514, AID1638, AID1749, AID1750, AID488957, AID488963]
E3 ubiquitin-protein ligase XIAP, sequence (P98170 whole entry): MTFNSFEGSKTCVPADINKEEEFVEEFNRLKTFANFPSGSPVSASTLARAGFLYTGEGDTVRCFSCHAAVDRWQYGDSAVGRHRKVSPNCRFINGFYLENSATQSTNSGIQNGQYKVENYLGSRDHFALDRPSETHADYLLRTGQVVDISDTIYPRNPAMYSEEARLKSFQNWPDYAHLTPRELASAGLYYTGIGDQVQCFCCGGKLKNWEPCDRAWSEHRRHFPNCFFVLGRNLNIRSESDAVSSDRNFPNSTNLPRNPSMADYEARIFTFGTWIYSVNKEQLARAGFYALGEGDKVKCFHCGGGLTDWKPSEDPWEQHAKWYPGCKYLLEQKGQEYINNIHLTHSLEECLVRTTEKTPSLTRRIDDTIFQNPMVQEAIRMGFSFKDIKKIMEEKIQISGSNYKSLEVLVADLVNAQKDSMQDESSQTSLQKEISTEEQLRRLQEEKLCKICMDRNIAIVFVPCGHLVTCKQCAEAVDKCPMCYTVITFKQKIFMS

[3] = biological target: Photoreceptor-specific nuclear receptor (Homo sapiens, UniProt Q9Y5X4); assay type: functional;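 also: potency for compounds that break the NR2E3 corepressor complex and count as activators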
Photoreceptor-specific nuclear receptor, sequence (Q9Y5X4 whole entry): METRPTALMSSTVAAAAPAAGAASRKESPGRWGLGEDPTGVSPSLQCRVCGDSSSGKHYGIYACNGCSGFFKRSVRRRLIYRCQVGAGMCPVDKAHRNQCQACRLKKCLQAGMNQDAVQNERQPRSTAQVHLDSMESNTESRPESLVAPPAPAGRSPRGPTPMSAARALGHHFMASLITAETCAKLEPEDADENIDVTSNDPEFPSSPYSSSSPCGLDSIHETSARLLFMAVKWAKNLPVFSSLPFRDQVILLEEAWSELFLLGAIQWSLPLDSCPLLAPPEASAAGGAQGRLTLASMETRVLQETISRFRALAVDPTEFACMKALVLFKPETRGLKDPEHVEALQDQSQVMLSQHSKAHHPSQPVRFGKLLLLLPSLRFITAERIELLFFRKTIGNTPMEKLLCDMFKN

[4] = biological target: Peroxisome proliferator-activated receptor gamma/Nuclear receptor corepressor 2 (Homo sapiens, UniProt P37231+Q9Y618); assay type: functional
Peroxisome proliferator-activated receptor gamma/Nuclear receptor corepressor 2, sequence (P37231 whole entry): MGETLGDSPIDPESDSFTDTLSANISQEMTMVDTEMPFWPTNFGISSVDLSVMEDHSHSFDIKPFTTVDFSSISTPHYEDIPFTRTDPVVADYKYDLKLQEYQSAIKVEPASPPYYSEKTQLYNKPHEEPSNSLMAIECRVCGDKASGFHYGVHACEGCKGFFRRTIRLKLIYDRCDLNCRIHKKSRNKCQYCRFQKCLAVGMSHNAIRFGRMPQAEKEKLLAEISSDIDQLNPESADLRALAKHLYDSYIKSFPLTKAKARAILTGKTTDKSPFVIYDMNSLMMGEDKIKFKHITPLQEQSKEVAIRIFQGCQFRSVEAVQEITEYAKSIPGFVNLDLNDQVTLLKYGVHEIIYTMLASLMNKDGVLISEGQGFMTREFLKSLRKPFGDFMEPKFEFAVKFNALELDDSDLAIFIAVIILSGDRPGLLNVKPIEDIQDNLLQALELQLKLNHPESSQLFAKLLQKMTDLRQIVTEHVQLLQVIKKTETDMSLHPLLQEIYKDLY
Peroxisome proliferator-activated receptor gamma/Nuclear receptor corepressor 2, sequence (Q9Y618 whole entry): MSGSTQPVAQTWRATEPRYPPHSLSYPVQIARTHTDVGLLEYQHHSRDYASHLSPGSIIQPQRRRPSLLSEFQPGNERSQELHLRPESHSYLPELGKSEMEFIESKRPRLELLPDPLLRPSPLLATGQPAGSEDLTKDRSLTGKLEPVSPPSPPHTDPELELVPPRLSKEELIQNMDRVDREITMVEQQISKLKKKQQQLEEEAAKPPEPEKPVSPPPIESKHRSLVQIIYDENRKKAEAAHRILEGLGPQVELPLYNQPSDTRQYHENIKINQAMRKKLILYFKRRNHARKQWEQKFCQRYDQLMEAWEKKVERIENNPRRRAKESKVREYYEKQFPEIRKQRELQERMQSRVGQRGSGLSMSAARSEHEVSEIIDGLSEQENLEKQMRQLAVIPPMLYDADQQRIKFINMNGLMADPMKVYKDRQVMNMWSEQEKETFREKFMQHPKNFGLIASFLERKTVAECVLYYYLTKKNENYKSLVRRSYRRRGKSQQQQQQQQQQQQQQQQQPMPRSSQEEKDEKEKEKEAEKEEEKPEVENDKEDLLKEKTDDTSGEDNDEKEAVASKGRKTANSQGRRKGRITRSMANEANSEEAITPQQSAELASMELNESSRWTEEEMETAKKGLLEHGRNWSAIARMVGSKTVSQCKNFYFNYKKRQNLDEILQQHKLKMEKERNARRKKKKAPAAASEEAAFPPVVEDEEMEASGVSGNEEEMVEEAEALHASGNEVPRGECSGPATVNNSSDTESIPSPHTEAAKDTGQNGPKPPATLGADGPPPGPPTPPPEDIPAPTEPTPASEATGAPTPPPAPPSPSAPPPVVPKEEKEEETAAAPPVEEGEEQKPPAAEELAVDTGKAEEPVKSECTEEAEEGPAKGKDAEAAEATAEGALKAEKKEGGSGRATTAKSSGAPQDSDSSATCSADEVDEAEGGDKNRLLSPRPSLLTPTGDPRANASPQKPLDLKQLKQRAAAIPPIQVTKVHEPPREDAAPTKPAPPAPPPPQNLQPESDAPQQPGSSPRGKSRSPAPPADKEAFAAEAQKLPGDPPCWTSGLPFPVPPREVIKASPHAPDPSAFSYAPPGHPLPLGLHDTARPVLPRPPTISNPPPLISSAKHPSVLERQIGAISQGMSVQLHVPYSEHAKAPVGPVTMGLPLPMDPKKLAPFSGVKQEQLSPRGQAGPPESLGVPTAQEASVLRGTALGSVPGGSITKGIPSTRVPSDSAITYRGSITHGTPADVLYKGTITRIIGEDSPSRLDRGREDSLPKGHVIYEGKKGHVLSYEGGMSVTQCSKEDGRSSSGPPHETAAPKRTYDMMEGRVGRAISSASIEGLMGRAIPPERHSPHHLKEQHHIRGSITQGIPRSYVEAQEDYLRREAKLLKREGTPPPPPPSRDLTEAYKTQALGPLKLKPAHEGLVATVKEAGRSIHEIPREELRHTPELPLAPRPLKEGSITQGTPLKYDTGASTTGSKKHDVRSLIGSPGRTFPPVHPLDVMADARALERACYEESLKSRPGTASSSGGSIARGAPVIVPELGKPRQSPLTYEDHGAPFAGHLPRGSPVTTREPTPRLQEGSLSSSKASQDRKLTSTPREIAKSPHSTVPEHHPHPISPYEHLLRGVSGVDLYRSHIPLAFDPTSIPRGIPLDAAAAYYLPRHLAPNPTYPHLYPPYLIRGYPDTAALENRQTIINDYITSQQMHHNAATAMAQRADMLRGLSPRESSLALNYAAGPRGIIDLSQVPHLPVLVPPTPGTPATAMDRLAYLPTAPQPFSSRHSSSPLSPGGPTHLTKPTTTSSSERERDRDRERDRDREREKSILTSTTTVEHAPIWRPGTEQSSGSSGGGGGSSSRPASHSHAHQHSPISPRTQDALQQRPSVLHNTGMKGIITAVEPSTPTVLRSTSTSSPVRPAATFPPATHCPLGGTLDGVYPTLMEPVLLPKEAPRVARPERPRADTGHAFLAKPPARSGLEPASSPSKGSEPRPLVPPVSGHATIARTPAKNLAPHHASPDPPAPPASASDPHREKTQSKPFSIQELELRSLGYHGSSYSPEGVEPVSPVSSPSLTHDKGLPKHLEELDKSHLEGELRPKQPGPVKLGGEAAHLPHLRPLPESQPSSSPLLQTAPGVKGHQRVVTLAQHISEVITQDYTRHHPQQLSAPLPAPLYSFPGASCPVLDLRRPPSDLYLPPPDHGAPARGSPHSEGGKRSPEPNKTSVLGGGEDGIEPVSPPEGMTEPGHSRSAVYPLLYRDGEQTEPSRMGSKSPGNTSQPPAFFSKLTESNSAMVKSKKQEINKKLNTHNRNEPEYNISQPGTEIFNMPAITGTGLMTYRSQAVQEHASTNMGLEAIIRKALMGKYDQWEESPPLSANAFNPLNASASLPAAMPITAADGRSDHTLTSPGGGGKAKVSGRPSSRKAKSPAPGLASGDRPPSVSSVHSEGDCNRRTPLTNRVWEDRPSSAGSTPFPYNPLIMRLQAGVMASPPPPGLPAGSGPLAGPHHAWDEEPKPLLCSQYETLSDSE

Coagulation factor XII = biological target: T3, Coagulation factor XII (Homo sapiens, UniProt P00748); assay type: functional;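 also: activated factor XIIa alpha cleaving a fluorogenic AMC peptide substrate; inhibitor potency from loss of enzyme activity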
T3 sequence (P00748 whole entry): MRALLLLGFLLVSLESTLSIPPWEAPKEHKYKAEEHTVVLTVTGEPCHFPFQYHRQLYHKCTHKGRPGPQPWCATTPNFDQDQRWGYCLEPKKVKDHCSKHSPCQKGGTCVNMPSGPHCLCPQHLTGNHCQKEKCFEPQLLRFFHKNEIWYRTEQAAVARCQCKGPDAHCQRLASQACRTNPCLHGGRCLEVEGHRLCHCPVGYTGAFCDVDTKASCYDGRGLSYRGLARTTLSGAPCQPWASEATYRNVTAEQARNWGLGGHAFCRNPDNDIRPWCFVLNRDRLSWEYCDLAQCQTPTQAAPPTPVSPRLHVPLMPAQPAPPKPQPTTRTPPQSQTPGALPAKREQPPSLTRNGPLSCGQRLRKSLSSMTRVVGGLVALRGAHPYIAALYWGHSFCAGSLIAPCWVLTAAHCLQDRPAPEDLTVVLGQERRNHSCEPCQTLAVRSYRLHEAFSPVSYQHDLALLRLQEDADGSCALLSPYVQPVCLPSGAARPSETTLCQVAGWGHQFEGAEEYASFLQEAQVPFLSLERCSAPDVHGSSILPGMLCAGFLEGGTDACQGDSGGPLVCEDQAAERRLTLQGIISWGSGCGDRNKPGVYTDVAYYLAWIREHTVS

[5] = biological target: Neurotensin receptor type 1 (Homo sapiens, UniProt P30989); assay type: functional;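 also: Image-based confirmatory dose-response assay measuring agonist activity at NTR1; NTR1-expressing U2OS osteosarcoma cells imaged for beta-arrestin GFP spot formation; agonist potency where compounds increase beta-arrestin recruitment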
Neurotensin receptor type 1, sequence (P30989 whole entry): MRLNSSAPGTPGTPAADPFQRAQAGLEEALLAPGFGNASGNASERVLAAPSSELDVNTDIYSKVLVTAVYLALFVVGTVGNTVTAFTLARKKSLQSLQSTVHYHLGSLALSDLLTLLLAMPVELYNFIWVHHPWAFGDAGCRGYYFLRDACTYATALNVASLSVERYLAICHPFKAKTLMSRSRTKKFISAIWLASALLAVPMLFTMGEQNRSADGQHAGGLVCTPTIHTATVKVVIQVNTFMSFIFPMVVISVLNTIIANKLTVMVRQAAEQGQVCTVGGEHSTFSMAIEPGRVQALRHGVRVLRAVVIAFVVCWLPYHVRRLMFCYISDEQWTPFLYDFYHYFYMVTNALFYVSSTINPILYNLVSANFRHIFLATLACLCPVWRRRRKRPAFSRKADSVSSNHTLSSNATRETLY

[6] = biological target: DNA dC->dU-editing enzyme APOBEC-3A (Homo sapiens, UniProt P31941); assay: Dose Response confirmation of small molecule APOBEC3A DNA Deaminase Inhibitors via a fluorescence-based single-stranded DNA deaminase assay. [Related pubchem assays (depositor defined):AID493011, AID493024]; assay type: functional
DNA dC->dU-editing enzyme APOBEC-3A, sequence (P31941 whole entry, the tested form may be a part): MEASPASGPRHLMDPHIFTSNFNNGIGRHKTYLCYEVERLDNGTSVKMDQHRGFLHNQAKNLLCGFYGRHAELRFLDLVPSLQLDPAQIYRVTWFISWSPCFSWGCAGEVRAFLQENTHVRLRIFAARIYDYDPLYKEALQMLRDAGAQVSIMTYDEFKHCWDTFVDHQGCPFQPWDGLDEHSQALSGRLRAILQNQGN

[7] = biological target: T4, Carboxy-terminal domain RNA polymerase II polypeptide A small phosphatase 1 (Homo sapiens, UniProt Q9GZU7); assay: CTDSP1 inhibitors, concentration-response, biochemical, absorbance readout, ultra-high-throughput screen actives (AID 540297); assay type: functional
T4 sequence (Q9GZU7 whole entry): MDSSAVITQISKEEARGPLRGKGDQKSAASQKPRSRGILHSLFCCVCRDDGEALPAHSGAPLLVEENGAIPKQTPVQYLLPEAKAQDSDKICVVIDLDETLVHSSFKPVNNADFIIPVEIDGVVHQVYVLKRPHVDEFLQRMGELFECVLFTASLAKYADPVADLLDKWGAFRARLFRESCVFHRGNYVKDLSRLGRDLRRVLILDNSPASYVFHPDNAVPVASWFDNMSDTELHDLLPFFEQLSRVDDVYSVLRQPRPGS

SMILES: Cc1cccc(N2C(=O)/C(=C/Nc3ccccc3-c3nnc(S)nc3O)c3ccccc3C2=O)n1
- IC50 (Aminopeptidase N): 60.4 µM (active)
- IC50 [1]: > 55.7 µM (not active)
- IC50 (Insulin-degrading enzyme): 12.2 µM (not active)

SMILES: C=CCc1cccc2cc(C(=O)Nc3ccc(CC(=O)O)cc3)c(=O)oc12
- IC50 [2]: > 20 µM (inactive)

SMILES: Cc1nn(CCc2nnn[nH]2)c2nc(-c3ccc(Br)cc3)cc(C(F)(F)F)c12
- IC50 [3]: > 39.8 µM (not active)
- IC50 [4]: 4.7 µM (active)
- IC50 (Coagulation factor XII): > 50 µM (inactive)

SMILES: CCOc1ccc(C(=O)Nc2nnc(NC(=S)Nc3ccccc3)s2)cc1
- EC50 [5]: 9.68 µM (active)

SMILES: CC(C)[N+]12CCC(CC1)C(C(O)(c1ccccc1)c1ccccc1)C2 (stereo not given)
- IC50 [6]: 2.71 µM (active)
- IC50 [7]: 8.96 µM (active)
